# According to patent publication US20250338846A1, “COMPOSITIONS HAVING PESTICIDAL UTILITY AND PROCESSES RELATED THERETO” (CORTEVA AGRISCIENCE, LLC, priority 2022, published 2025):
# Legend:
# [1] = tested on: Diamondback Moth (Plutella xylostella, PLUTMA); assay: Bioassay 9: Diamondback Moth, leaves of track-sprayed cabbage plants, mortality and feeding damage scored; format: in vivo
# [2] = tested on: Sweet Potato Whitefly (Bemisia tabaci, BEMITA); assay: Bioassay 8: Sweet Potato Whitefly, spray on cotton seedlings at crawler emergence, nymphs counted 7-9 days after treatment; format: in vivo; conditions: F1 alone 0.8 (10^-5) Wt %
compound,measurement,setting,value
"CCN(C(=O)CCS(C)(=O)=O)c1sc(-c2cccnc2)nc1Cl [Formula F1, N-(4-chloro-2-(pyridin-3-yl)thiazol-5-yl)-N-ethyl-3-(methylsulfonyl)propanamide]",Average % Control F1,[1]; F1 alone 10 (10^-5) Wt %,0.00%
same,Average % Control F1,"[1]; Feeding damage control, F1 alone 20 (10^-5) Wt %",17.64%
same,Average % Control F1,[2],74.86%
